From patent publication US20240188571A1, “EMULSIFIABLE CONCENTRATE COMPOSITION AS WOOD PROTECTANT AND FOR TERMITE AND FUNGAL PATHOGENS CONTROL APPLICATIONS” (priority 2021, published 2024)
Marks after values point to notes of the source that are not given here.

Legend:
[1] = test system: termite, Odontotermes sp.; test: Topical (direct contact toxicity) assay against termites, planar arena; format: in vivo; conditions: 25 ml/lit., after 24 hours, mean of five replications
Procedure: (§1) The formulation was evaluated under laboratory conditions following standard protocols for its contact and surface toxicity, against termite, Odontotermes sp. to simulate real field conditions. In the topical (direct contact toxicity) assay, the bio-termiticide was sprayed directly on the termites and mortality (death), repellence (moving away) or anti-feedant (non-feeding) effects were studied. This assay was carried out in simulation of curative management viz., post-infestation management. In the surface toxicity assay the surface on which the termites walk over was sprayed, termites were allowed to move on the treated surface later and mortality (death), repellence (moving a way) or anti-feedant (non-feeding) effects were studied. This assay was carried out in simulation of preventive management viz., pre-infestation management. These two methods were planned as they suffice the current needs of pre- and post-infestation termite management.
(§2) Both the topical and surface toxicity bioassays were carried out using planar arena assay method (Chouvenc et al. 20112011, Planar Arenas for Use in Laboratory Bioassay Studies of Subterranean Termites (Rhinotermitidae). Florida Entomologist, 94(4): 817-826) with minor modifications. Seven concentrations of the cedar wood oil Emulsifiable concentrate formulation, standard check Chlorpyriphos and untreated control were used in the bioassay. […]

[2] = test system: termite, Odontotermes sp.; test: Surface toxicity assay against termites, planar arena; format: in vivo; conditions: 25 ml/lit., termites released one hour after spraying, mean of five replications
Procedure: as §1, §2

decay fungi = test: Protection of wood from decay fungi, Marandi wood blocks kept in open space for one year; conditions: Marandi wood blocks sprayed, untreated control infested by Fusarium oxysporum
Source text: Blocks of Marandi wood of size 30×15×4 cm (L×B×W) were taken for the experiment. The emulsion of cedar wood oil emulsifiable concentrate formulation in water was sprayed on two replicates of wooden blocks using a band sprayer. No emulsion was applied on untreated control. Market sample of Propiconazole was used as standard check for comparing the effect of this botanical cedar wood oil emulsifiable concentrate formulation. The blocks after application and untreated control were kept in open space for a period of one year starting from the month of November up to the month of October to subject the blocks to winter, summer and rainy season. Observations on the wooden blocks were taken to check the infestation of fungi and damage caused by fungi.

SMILES	Percent Mortality [1]	Percent repellence [1]	Percent Mortality [2]	Percent repellence [2]	infestation of fungi on treated wooden blocks (decay fungi)
CCOP(=S)(OCC)Oc1nc(Cl)c(Cl)cc1Cl [Chlorpyriphos]	92 (73.57)^b Percent	0 (0.29)^e Percent	80 (63.43)^b Percent	4 (11.54)^e Percent	–
CCCC1COC(Cn2cncn2)(c2ccc(Cl)cc2Cl)O1 (centres unmarked) [Propiconazole]	–	–	–	–	No infestation of the fungi
